From patent US20230293644A1, “ANTI-INFLAMMATORY PEPTIDES AND COMPOSITION COMPRISING THE SAME” (Gemvax & KAEL Co., Ltd., priority 2012, published 2023)

Test system: TNF-α
Assay: Screening of TNF-α inhibitory effect, LPS-stimulated PBMC-derived monocytes (Example 2)
Assay type: cell-based, human
Conditions: 4 uM peptide, 2 hrs; LPS 10 ng/ml
Description: PBMC (peripheral blood mononuclear cells) layer was separated from blood samples (50 ml) collected in healthy subjects using Biocoll Separating Solution (Biochrom AG, Berlin, Germany). The collected PBMC were enriched in RPMI 1640 medium containing 20% human serum for 30 mins, and then transferred to 100-mm polystyeren cell culture plate coated with human serum for incubation for 2 hrs at 37° C., 5% CO^2 incubator. Monocytes were detached from the bottom of the plate using cold PBS, and incubated to reach the number of 1 × 10^5 cell/well in 96-well plate with RPMI 1640 medium (supplemented with penicillinstreptomycin; […], human serum; 20%) over night.
ELISA was performed to find out how the peptides of the PEP RIA series influence TNF-α level. PBMC-derived monocytes were incubated to reach the number of 1 × 10^5 cells per well in a 96-well plate and then treated with LPS (lipopolysaccharide; 10 ng/ml, Sigma) for 2 hours. To the monocytes that were washed three times with PBS, OPTI-MEM culture medium was added to induce cell starvation for an hour, 4 µM of the peptide was taken out and incubated for 2 hours. There were three negative control groups. The first group was not treated with anything. The second group that was treated with estrogen (in this experiment, estradiol was used as a kind of estrogen). The third group was treated with LPS (10 ng/ml) or with LPS (10 ng/ml) as well as estrogen (20 nM). PEP1 that was confirmed to have TNF-α inhibiting activity was used as a positive control to measure TNF-α inhibiting activity. After incubation, TNF-α was measured by following the ELISA kit manual (R&D, Minneapolis, MN, USA). The details of quantification method can be found in Experiment 2.2 of Example 1.
Using the method stated above, Peptides with TNF-α inhibiting effect were screened. PBMC-derived monocytes were stimulated with LPS (10 ng/ml), which is endotoxin, for 2 hours and were induced to starve by adding OPTI-MEM for 1 hour. After that, 4 uM of 179 peptides were treated and incubated for 2 hrs. The amount of TNF-α in the cell culture medium was measured using ELISA, and the peptides with TNF-α inhibiting effect were screened by comparing to the negative and positive controls (FIG. 3 to FIG. 23).

Substance | TNF-α inhibiting effect compared to the control group treated with only LPS
EARPALLTSRLRFIPKP (listed as Homo sapiens) [SEQ ID NO: 65] | showed TNF-α inhibiting effect
HREARPALLTSRLRFIPKPDGLRPI (listed as Homo sapiens) [SEQ ID NO: 63] | showed TNF-α inhibiting effect
LRFIP (listed as Homo sapiens) [SEQ ID NO: 174] | showed TNF-α inhibiting effect
AEVRQHREARPALLTSRLRFIPKPDGLRPI (listed as Homo sapiens) [SEQ ID NO: 58] | showed TNF-α inhibiting effect
RFIPK (listed as Homo sapiens) [SEQ ID NO: 101] | showed TNF-α inhibiting effect
AEVRQHREARPALLTSRLRFIPKPDGLR (listed as Homo sapiens) [SEQ ID NO: 56] | showed TNF-α inhibiting effect
LLTSR (listed as Homo sapiens) [SEQ ID NO: 150] | showed TNF-α inhibiting effect
ARPALLTSRLRFIP (listed as Homo sapiens) [SEQ ID NO: 104] | showed TNF-α inhibiting effect
LTSRLR (listed as Homo sapiens) [SEQ ID NO: 156] | showed TNF-α inhibiting effect
EARPA (listed as Homo sapiens) [SEQ ID NO: 88] | showed TNF-α inhibiting effect
QHREARPALLTSRLRFIPKPDGLRPI (listed as Homo sapiens) [SEQ ID NO: 62] | showed TNF-α inhibiting effect
LTSRLRFIPK (listed as Homo sapiens) [SEQ ID NO: 96] | showed TNF-α inhibiting effect
RPALLTSRLRFI (listed as Homo sapiens) [SEQ ID NO: 105] | showed TNF-α inhibiting effect
EARPALLTS (listed as Homo sapiens) [SEQ ID NO: 84] | showed TNF-α inhibiting effect
RELSEAEVRQHREARPALLTSRLRFIPK (listed as Homo sapiens) [SEQ ID NO: 13] | showed TNF-α inhibiting effect
EVRQHREARPALLTSRLRFIPKPDGL (listed as Homo sapiens) [SEQ ID NO: 44] | showed TNF-α inhibiting effect
RFI [SEQ ID NO: 178] | showed TNF-α inhibiting effect
ARPALLTSRLRFIPK (listed as Homo sapiens) [SEQ ID NO: 91] | showed TNF-α inhibiting effect

Substance | TNF-α inhibiting effect compared to the control group treated with only LPS
EARPALLTSRLRFIPKPDGLRPIV (listed as Homo sapiens) [SEQ ID NO: 71] | showed TNF-α inhibiting effect
EARPALLTSRLRFIPKPDGLRPI (listed as Homo sapiens) [SEQ ID NO: 70] | showed TNF-α inhibiting effect
EARPALLTSRLRFIPKPDGLRPIVNMD (listed as Homo sapiens) [SEQ ID NO: 74] | showed TNF-α inhibiting effect
LTS [SEQ ID NO: 158] | showed TNF-α inhibiting effect
SRLRFI (listed as Homo sapiens) [SEQ ID NO: 166] | showed TNF-α inhibiting effect
PALLTSRLRFI (listed as Homo sapiens) [SEQ ID NO: 131] | showed TNF-α inhibiting effect
EAEVRQHREARPALLTSRLRFIPK (listed as Homo sapiens) [SEQ ID NO: 9] | showed TNF-α inhibiting effect
TSR [SEQ ID NO: 164] | showed TNF-α inhibiting effect
RLR [SEQ ID NO: 173] | showed TNF-α inhibiting effect
IPK [SEQ ID NO: 103] | showed TNF-α inhibiting effect
RQHREARPALLTSRLRFIPKPDGL (listed as Homo sapiens) [SEQ ID NO: 28] | showed TNF-α inhibiting effect
ALLTSRL (listed as Homo sapiens) [SEQ ID NO: 141] | showed TNF-α inhibiting effect
AEVRQHREARPALLTSRLRFIPKPDGLRP (listed as Homo sapiens) [SEQ ID NO: 57] | showed TNF-α inhibiting effect
RLRFIPK (listed as Homo sapiens) [SEQ ID NO: 99] | showed TNF-α inhibiting effect
VRQHREARPALLTSRLRFIPKPDG (listed as Homo sapiens) [SEQ ID NO: 34] | showed TNF-α inhibiting effect
AEVRQHREARPALLTSRLRFIPKPDG (listed as Homo sapiens) [SEQ ID NO: 54] | showed TNF-α inhibiting effect
HREARPALLTSRLRFIPKP (listed as Homo sapiens) [SEQ ID NO: 17] | showed TNF-α inhibiting effect
SRLR (listed as Homo sapiens) [SEQ ID NO: 168] | showed TNF-α inhibiting effect

Same assay, conditions: 4 uM peptide, 2 hrs; LPS 10 ng/ml, estrogen 20 nM

Substance | TNF-α inhibiting effect compared to the group treated with LPS and estrogen
EARPALLTSRLRFIPKP (listed as Homo sapiens) [SEQ ID NO: 65] | showed TNF-α inhibiting effect
HREARPALLTSRLRFIPKPDGLRPI (listed as Homo sapiens) [SEQ ID NO: 63] | showed TNF-α inhibiting effect
LRFIP (listed as Homo sapiens) [SEQ ID NO: 174] | showed TNF-α inhibiting effect
RFIPK (listed as Homo sapiens) [SEQ ID NO: 101] | showed TNF-α inhibiting effect
AEVRQHREARPALLTSRLRFIPKPDGLR (listed as Homo sapiens) [SEQ ID NO: 56] | showed TNF-α inhibiting effect
LTSRLR (listed as Homo sapiens) [SEQ ID NO: 156] | showed TNF-α inhibiting effect
EARPA (listed as Homo sapiens) [SEQ ID NO: 88] | showed TNF-α inhibiting effect
QHREARPALLTSRLRFIPKPDGLRPI (listed as Homo sapiens) [SEQ ID NO: 62] | showed TNF-α inhibiting effect
LTSRLRFIPK (listed as Homo sapiens) [SEQ ID NO: 96] | showed TNF-α inhibiting effect
EVRQHREARPALLTSRLRFIPKPDGL (listed as Homo sapiens) [SEQ ID NO: 44] | showed TNF-α inhibiting effect
ARPALLTSRLRFIPK (listed as Homo sapiens) [SEQ ID NO: 91] | showed TNF-α inhibiting effect
EARPALLTSRLRFIPKPDGLRPIV (listed as Homo sapiens) [SEQ ID NO: 71] | showed TNF-α inhibiting effect
EARPALLTSRLRFIPKPDGLRPI (listed as Homo sapiens) [SEQ ID NO: 70] | showed TNF-α inhibiting effect
SRLRFI (listed as Homo sapiens) [SEQ ID NO: 166] | showed TNF-α inhibiting effect
EAEVRQHREARPALLTSRLRFIPK (listed as Homo sapiens) [SEQ ID NO: 9] | showed TNF-α inhibiting effect
TSR [SEQ ID NO: 164] | showed TNF-α inhibiting effect
RLR [SEQ ID NO: 173] | showed TNF-α inhibiting effect
IPK [SEQ ID NO: 103] | showed TNF-α inhibiting effect
RLRFIPK (listed as Homo sapiens) [SEQ ID NO: 99] | showed TNF-α inhibiting effect
VRQHREARPALLTSRLRFIPKPDG (listed as Homo sapiens) [SEQ ID NO: 34] | showed TNF-α inhibiting effect
AEVRQHREARPALLTSRLRFIPKPDG (listed as Homo sapiens) [SEQ ID NO: 54] | showed TNF-α inhibiting effect
HREARPALLTSRLRFIPKP (listed as Homo sapiens) [SEQ ID NO: 17] | showed TNF-α inhibiting effect
